Experimental data reported in paper PMC3165048 (Chemistry & biology, 2010).
Values after ≈ are worked out from the molar mass of the structure shown.

Assays:
[1] = system: Replicating M. tuberculosis; test: Minimum inhibitory concentration in replicating M. tuberculosis culture; format: cell-based, M. tuberculosis H37Rv
[2] = biological target: MtMetAP1a (Mycobacterium tuberculosis, UniProt P9WK20); test: Coupled methionine-proline aminopeptidase enzymatic assay; format: biochemical; details: […] CoCl2, 600 µM Met-Pro-pNA, 20 min pre-incubation
Sequence of MtMetAP1a (P9WK20 whole entry): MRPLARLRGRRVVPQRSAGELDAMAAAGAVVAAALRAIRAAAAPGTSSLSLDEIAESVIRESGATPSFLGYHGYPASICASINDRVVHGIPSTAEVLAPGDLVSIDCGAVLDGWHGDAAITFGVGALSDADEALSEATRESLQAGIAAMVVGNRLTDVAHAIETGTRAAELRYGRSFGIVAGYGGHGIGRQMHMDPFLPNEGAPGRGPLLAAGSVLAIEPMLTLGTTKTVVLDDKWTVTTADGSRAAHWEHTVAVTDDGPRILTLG

[3] = biological target: MtMetAP1c (Mycobacterium tuberculosis, UniProt P9WK18); test: biochemical; details: […] CoCl2, 600 µM Met-Pro-pNA, 20 min pre-incubation
Sequence of MtMetAP1c (P9WK18 whole entry): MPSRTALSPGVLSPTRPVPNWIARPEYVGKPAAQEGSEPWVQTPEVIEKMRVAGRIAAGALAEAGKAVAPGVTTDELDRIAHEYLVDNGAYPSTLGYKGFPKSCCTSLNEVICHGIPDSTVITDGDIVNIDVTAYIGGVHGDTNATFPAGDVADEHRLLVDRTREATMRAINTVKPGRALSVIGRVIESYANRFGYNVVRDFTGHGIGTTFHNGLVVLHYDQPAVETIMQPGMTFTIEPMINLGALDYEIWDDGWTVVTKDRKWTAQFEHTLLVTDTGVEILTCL

[4] = system: Aged-cultured (non-replicating) M. tuberculosis; test: microbe, parasite or virus in culture; format: cell-based, M. tuberculosis H37Ra; details: Mycobacterium tuberculosis, read-out: M.I.C. Aged-cultured M. tuberculosis

O=C1C(Cl)=C(Cl)C(=O)c2ccccc21 [Compound 4, 2,3-dichloro-1,4-naphthoquinone]
M.I.C. Replicating M. tuberculosis [1]: 10 µg/mL | IC50 [2]: 3.3 ± 0.3 µM | IC50 [3]: 6.6 ± 1.2 µM | MIC [4]: 5.7 to 11.4 µg/mL (≈ 25.1 to 50.2 µM)
